We go through two compounds from paper PMC12693523, “Aldose Reductase Inhibition by Orthosiphon stamineus Extracts and Constituents Suggests Antioxidant Potential” (Molecules, 2025).

The target of the assay is T1, aldose reductase (AKR1B1) (Homo sapiens, UniProt P15121).
T1 construct: recombinant human AKR1B1 protein (His Tag)
Nature of the assay: NADPH consumption at […] nm with DL-glyceraldehyde, recombinant enzyme. The class given is biochemical.

Molecules are shown by their SMILES.

In the case of `COc1ccc(-c2cc(=O)c3c(O)c(OC)c(OC)cc3o2)cc1O` [EUP, eupatorin], the IC50 (usually the concentration that gives 50% inhibition) was determined as 203 ± 0.24 µM. As to `O=C(/C=C/c1ccc(O)c(O)c1)O[C@H](Cc1ccc(O)c(O)c1)C(=O)O` [RA, rosmarinic acid], the IC50 turned out to be 41.4 ± 0.04 µM.
